# The source made the active and inactive calls. No cut-off for these calls is given here.
# Experiments:
# [1] = system: Mycobacterium tuberculosis; assay: Antimycobacterial activity against extensively drug-resistant Mycobacterium tuberculosis isolate 2403 obtained from sputum of patient at 0.1 ug/ml by Bactec MGIT960 modified proportion method; assay type: functional, organism-based
# [2] = system: Mycobacterium tuberculosis; assay: Antimycobacterial activity against extensively drug-resistant Mycobacterium tuberculosis isolate 2301 obtained from sputum of patient at 0.1 ug/ml by Bactec MGIT960 modified proportion method; assay type: functional, organism-based
# [3] = system: Mycobacterium tuberculosis; assay: Antimycobacterial activity against extensively drug-resistant Mycobacterium tuberculosis isolate 2911 obtained from sputum of patient at 0.1 ug/ml by Bactec MGIT960 modified proportion method; assay type: functional, organism-based
# [4] = system: Mycobacterium tuberculosis; assay: Antimycobacterial activity against extensively drug-resistant Mycobacterium tuberculosis isolate 2474 obtained from sputum of patient at 0.1 ug/ml by Bactec MGIT960 modified proportion method; assay type: functional, organism-based
# [5] = system: Mycobacterium tuberculosis; assay: Antimycobacterial activity against extensively drug-resistant Mycobacterium tuberculosis isolate 625 horboring rpoB S531L/G566R/I569L, katG S315T/R463L, gyrA A90V/S95T, rrs A1401G by CLSI method; assay type: functional
# [6] = system: Mycobacterium tuberculosis; assay: Antimycobacterial activity against extensively drug-resistant Mycobacterium tuberculosis isolate 761 horboring rpoB S531L/Q510P, katG S315T/R463L, gyrA D94N/S95T, rrs G1484T by CLSI method; assay type: functional
# [7] = system: Mycobacterium tuberculosis; assay: Antimycobacterial activity against extensively drug-resistant Mycobacterium tuberculosis isolate 2301 horboring rpoB S531L, katG R463L/E217G, gyrA D94N/S95T, rrs A1401G by CLSI method; assay type: functional
# [8] = system: Mycobacterium tuberculosis; assay: Antimycobacterial activity against extensively drug-resistant Mycobacterium tuberculosis isolate 2474 horboring rpoB H526Y, katG D329A/R463L, gyrA D94G/S95T, rrs A1401G by CLSI method; assay type: functional
# [9] = system: Mycobacterium tuberculosis; assay: Antimycobacterial activity against extensively drug-resistant Mycobacterium tuberculosis isolate 2911 horboring rpoB D516V, katG S315T/R463L, gyrA D94G/S95T/R128S/Y129C, rrs A1401G by CLSI method; assay type: functional
# [10] = system: Mycobacterium tuberculosis; assay: Antimycobacterial activity against extensively drug-resistant Mycobacterium tuberculosis H37Rv by CLSI method; assay type: functional
# [11] = system: Mycobacterium tuberculosis; assay: Antimycobacterial activity against extensively drug-resistant Mycobacterium tuberculosis isolate 625 obtained from sputum of patient at 0.1 ug/ml by Bactec MGIT960 modified proportion method; assay type: functional, organism-based
# [12] = system: Mycobacterium tuberculosis; assay: Antimycobacterial activity against extensively drug-resistant Mycobacterium tuberculosis isolate 761 obtained from pus of patient at 0.1 ug/ml by Bactec MGIT960 modified proportion method; assay type: functional, organism-based
# [13] = system: Mycobacterium tuberculosis; assay: Antimycobacterial activity against extensively drug-resistant Mycobacterium tuberculosis isolate 2301 obtained from sputum of patient at 1 ug/ml by Bactec MGIT960 modified proportion method; assay type: functional, organism-based
# [14] = system: Mycobacterium tuberculosis; assay: Antimycobacterial activity against extensively drug-resistant Mycobacterium tuberculosis isolate 2911 obtained from sputum of patient at 1 ug/ml by Bactec MGIT960 modified proportion method; assay type: functional, organism-based
# [15] = system: Mycobacterium tuberculosis; assay: Antimycobacterial activity against extensively drug-resistant Mycobacterium tuberculosis isolate 2474 obtained from sputum of patient at 1 ug/ml by Bactec MGIT960 modified proportion method; assay type: functional, organism-based
# [16] = system: Mycobacterium tuberculosis; assay: Antimycobacterial activity against extensively drug-resistant Mycobacterium tuberculosis isolate 761 obtained from pus of patient at 1 ug/ml by Bactec MGIT960 modified proportion method; assay type: functional, organism-based
# [17] = system: Mycobacterium tuberculosis; assay: Antimycobacterial activity against extensively drug-resistant Mycobacterium tuberculosis isolate 2403 obtained from sputum of patient at 1 ug/ml by Bactec MGIT960 modified proportion method; assay type: functional, organism-based
# [18] = system: Mycobacterium tuberculosis; assay: Antimycobacterial activity against extensively drug-resistant Mycobacterium tuberculosis isolate 2403 obtained from sputum of patient at 5 ug/ml by Bactec MGIT960 modified proportion method; assay type: functional, organism-based
# [19] = system: Mycobacterium tuberculosis; assay: Antimycobacterial activity against extensively drug-resistant Mycobacterium tuberculosis isolate 2301 obtained from sputum of patient at 5 ug/ml by Bactec MGIT960 modified proportion method; assay type: functional, organism-based
# [20] = system: Mycobacterium tuberculosis; assay: Antimycobacterial activity against extensively drug-resistant Mycobacterium tuberculosis isolate 2911 obtained from sputum of patient at 5 ug/ml by Bactec MGIT960 modified proportion method; assay type: functional, organism-based
# [21] = system: Mycobacterium tuberculosis; assay: Antimycobacterial activity against extensively drug-resistant Mycobacterium tuberculosis isolate 2474 obtained from sputum of patient at 5 ug/ml by Bactec MGIT960 modified proportion method; assay type: functional, organism-based
# [22] = system: Mycobacterium tuberculosis; assay: Antimycobacterial activity against extensively drug-resistant Mycobacterium tuberculosis isolate 761 obtained from pus of patient at 5 ug/ml by Bactec MGIT960 modified proportion method; assay type: functional, organism-based
# [23] = system: Mycobacterium tuberculosis; assay: Antimycobacterial activity against extensively drug-resistant Mycobacterium tuberculosis isolate 625 obtained from sputum of patient at 1 ug/ml by Bactec MGIT960 modified proportion method; assay type: functional, organism-based
# [24] = system: Mycobacterium tuberculosis; assay: Antimycobacterial activity against extensively drug-resistant Mycobacterium tuberculosis isolate 2403 obtained from sputum of patient at 2 ug/ml by Bactec MGIT960 modified proportion method; assay type: functional, organism-based
# [25] = system: Mycobacterium tuberculosis; assay: Antimycobacterial activity against extensively drug-resistant Mycobacterium tuberculosis isolate 2301 obtained from sputum of patient at 2 ug/ml by Bactec MGIT960 modified proportion method; assay type: functional, organism-based
# [26] = system: Mycobacterium tuberculosis; assay: Antimycobacterial activity against extensively drug-resistant Mycobacterium tuberculosis isolate 2911 obtained from sputum of patient at 2 ug/ml by Bactec MGIT960 modified proportion method; assay type: functional, organism-based
# [27] = system: Mycobacterium tuberculosis; assay: Antimycobacterial activity against extensively drug-resistant Mycobacterium tuberculosis isolate 2474 obtained from sputum of patient at 2 ug/ml by Bactec MGIT960 modified proportion method; assay type: functional, organism-based
# [28] = system: Mycobacterium tuberculosis; assay: Antimycobacterial activity against extensively drug-resistant Mycobacterium tuberculosis isolate 625 obtained from sputum of patient at 2 ug/ml by Bactec MGIT960 modified proportion method; assay type: functional, organism-based
# [29] = system: Mycobacterium tuberculosis; assay: Antimycobacterial activity against extensively drug-resistant Mycobacterium tuberculosis isolate 761 obtained from pus of patient at 2 ug/ml by Bactec MGIT960 modified proportion method; assay type: functional, organism-based
# [30] = system: Mycobacterium tuberculosis; assay: Antimycobacterial activity against extensively drug-resistant Mycobacterium tuberculosis isolate 2403 obtained from sputum of patient at 4 ug/ml by Bactec MGIT960 modified proportion method; assay type: functional, organism-based
# [31] = system: Mycobacterium tuberculosis; assay: Antimycobacterial activity against extensively drug-resistant Mycobacterium tuberculosis isolate 2301 obtained from sputum of patient at 4 ug/ml by Bactec MGIT960 modified proportion method; assay type: functional, organism-based
# [32] = system: Mycobacterium tuberculosis; assay: Antimycobacterial activity against extensively drug-resistant Mycobacterium tuberculosis isolate 2911 obtained from sputum of patient at 4 ug/ml by Bactec MGIT960 modified proportion method; assay type: functional, organism-based
# [33] = system: Mycobacterium tuberculosis; assay: Antimycobacterial activity against extensively drug-resistant Mycobacterium tuberculosis isolate 2474 obtained from sputum of patient at 4 ug/ml by Bactec MGIT960 modified proportion method; assay type: functional, organism-based
# [34] = system: Mycobacterium tuberculosis; assay: Antimycobacterial activity against extensively drug-resistant Mycobacterium tuberculosis isolate 625 obtained from sputum of patient at 4 ug/ml by Bactec MGIT960 modified proportion method; assay type: functional, organism-based
# [35] = system: Mycobacterium tuberculosis; assay: Antimycobacterial activity against extensively drug-resistant Mycobacterium tuberculosis isolate 761 obtained from pus of patient at 4 ug/ml by Bactec MGIT960 modified proportion method; assay type: functional, organism-based
Structure (SMILES),MIC [5] [µg/mL],MIC [6] [µg/mL],MIC [7] [µg/mL],MIC [8] [µg/mL],MIC [9] [µg/mL],MIC [10] [µg/mL],also measured
NNC(=O)c1ccncc1 [ISONIAZID],>16,4,0.5,1,4,0.25,Activity [1]: inactive; Activity [2]: inactive; Activity [3]: inactive; Activity [4]: inactive; Activity [11]: inactive; Activity [12]: inactive
NCC[C@H](O)C(=O)N[C@@H]1C[C@H](N)[C@@H](O[C@H]2O[C@H](CN)[C@@H](O)[C@H](O)[C@H]2O)[C@H](O)[C@H]1O[C@H]1O[C@H](CO)[C@@H](O)[C@H](N)[C@H]1O [AMIKACIN],>16,16,>16,>16,>16,0.5,Activity [13]: inactive; Activity [14]: inactive; Activity [15]: inactive; Activity [16]: inactive; Activity [17]: inactive
CC[C@@H](CO)NCCN[C@@H](CC)CO [ETHAMBUTOL],4,8,2,4,4,1,Activity [18]: inactive; Activity [19]: inactive; Activity [20]: inactive; Activity [21]: inactive; Activity [22]: Active
CO[C@H]1/C=C/O[C@@]2(C)Oc3c(C)c(O)c4c(O)c(c(/C=N/N5CCN(C)CC5)c(O)c4c3C2=O)NC(=O)/C(C)=C\C=C\[C@H](C)[C@H](O)[C@@H](C)[C@@H](O)[C@@H](C)[C@H](OC(C)=O)[C@@H]1C [RIFAMPIN],>16,>16,>16,>16,16,0.25,Activity [13]: inactive; Activity [14]: inactive; Activity [15]: inactive; Activity [23]: inactive; Activity [16]: inactive; Activity [17]: inactive
CC1COc2c(N3CCN(C)CC3)c(F)cc3c(=O)c(C(=O)O)cn1c23 (stereo not drawn) [OFLOXACIN],16,16,8,8,8,0.5,Activity [24]: inactive; Activity [25]: inactive; Activity [26]: inactive; Activity [27]: inactive; Activity [28]: inactive; Activity [29]: inactive
N[C@@H]1CONC1=O [CYCLOSERINE],16,>16,16,16,16,8,–
NC[C@H]1O[C@H](O[C@H]2[C@H](O)[C@@H](O[C@H]3O[C@H](CO)[C@@H](O)[C@H](N)[C@H]3O)[C@H](N)C[C@@H]2N)[C@H](O)[C@@H](O)[C@@H]1O [KANAMYCIN],>16,>16,>16,>16,>16,2,Activity [30]: inactive; Activity [31]: inactive; Activity [32]: inactive; Activity [33]: Active; Activity [34]: inactive; Activity [35]: inactive
COc1c(N2C[C@@H]3CCCN[C@@H]3C2)c(F)cc2c(=O)c(C(=O)O)cn(C3CC3)c12,–,–,–,–,–,–,Activity [24]: inactive; Activity [25]: inactive; Activity [26]: inactive; Activity [28]: inactive; Activity [29]: inactive
CN[C@@H]1[C@H](O[C@H]2[C@H](O[C@H]3[C@H](O)[C@@H](O)[C@H](N=C(N)N)[C@@H](O)[C@@H]3N=C(N)N)O[C@@H](C)[C@]2(O)C=O)O[C@@H](CO)[C@H](O)[C@H]1O [STREPTOMYCIN],16,0.125,0.5,>16,>16,1,Activity [13]: inactive; Activity [14]: inactive; Activity [15]: inactive; Activity [16]: Active; Activity [17]: inactive
C[C@@H]1CN(c2c(F)c(N)c3c(=O)c(C(=O)O)cn(C4CC4)c3c2F)C[C@H](C)N1 [SPARFLOXACIN],8,16,16,16,>16,0.5,–
C[C@H]1COc2c(N3CCN(C)CC3)c(F)cc3c(=O)c(C(=O)O)cn1c23,–,–,–,–,–,–,Activity [24]: inactive; Activity [25]: inactive; Activity [26]: inactive; Activity [29]: inactive
CCc1cc(C(N)=S)ccn1 [ETHIONAMIDE],4,1,2,>16,4,0.5,–
